The subject of the assay is ^64CuCl2 (^64Cu) intestinal absorption and hepatic copper uptake. The experiment in a line: Example 2: Copper Absorption study, oral 64Cu PET-CT in healthy subjects. Type of assay: in vivo, human. The settings on record: healthy subjects; for mean SUV liver / hepatic uptake of labeled copper, comparison between treatments: 1 hour and 15 hours after oral 64Cu; for reduction of mean hepatic copper uptake: 1 hr scan post treatment, oral 64Cu, 7 days treatment. The procedure:
Blood was collected at several time points to assess plasma copper kinetics. The study was carried out as a randomized, placebo-controlled intervention study. […] The study assessed the previously listed organs and the effect of anti-copper treatment by comparing the mean standard uptake value (SUV) in the organs of interest. […] The dynamic baseline scans and the subsequent static scans were compared across all treatments.

This is an account of results in patent publication US20250082674A1, “METHODS OF TREATING COPPER METABOLISM-ASSOCIATED DISEASES OR DISORDERS” (priority 2021, published 2025).

Molecules are shown by their SMILES.

As for `NCCNCCNCCN` [trientine, N′-[2-(2-aminoethylamino)ethyl]ethane-1,2-diamine, reference compound], the “mean SUV liver / hepatic uptake of labeled copper, comparison between treatments” value is listed as “significantly lower than with penicillamine” and the “reduction of mean hepatic copper uptake” value is given as about 50%.
For `CC(C)(S)[C@@H](N)C(=O)O` [penicillamine, (2S)-2-amino-3-methyl-3-sulfanylbutanoic acid, reference compound], the “mean SUV liver / hepatic uptake of labeled copper, comparison between treatments” value was “not different from placebo” and the “reduction of mean hepatic copper uptake” value is “approximately 25%”.
